Data set [1] concerns the target T1, human RXFP1 (Homo sapiens, UniProt Q9HBX9).
T1 construct: OVCAR5 cells expressing endogenous human RXFP1; endogenous in cells; host or cells: OVCAR5 cells
T1 sequence (Q9HBX9 1-757): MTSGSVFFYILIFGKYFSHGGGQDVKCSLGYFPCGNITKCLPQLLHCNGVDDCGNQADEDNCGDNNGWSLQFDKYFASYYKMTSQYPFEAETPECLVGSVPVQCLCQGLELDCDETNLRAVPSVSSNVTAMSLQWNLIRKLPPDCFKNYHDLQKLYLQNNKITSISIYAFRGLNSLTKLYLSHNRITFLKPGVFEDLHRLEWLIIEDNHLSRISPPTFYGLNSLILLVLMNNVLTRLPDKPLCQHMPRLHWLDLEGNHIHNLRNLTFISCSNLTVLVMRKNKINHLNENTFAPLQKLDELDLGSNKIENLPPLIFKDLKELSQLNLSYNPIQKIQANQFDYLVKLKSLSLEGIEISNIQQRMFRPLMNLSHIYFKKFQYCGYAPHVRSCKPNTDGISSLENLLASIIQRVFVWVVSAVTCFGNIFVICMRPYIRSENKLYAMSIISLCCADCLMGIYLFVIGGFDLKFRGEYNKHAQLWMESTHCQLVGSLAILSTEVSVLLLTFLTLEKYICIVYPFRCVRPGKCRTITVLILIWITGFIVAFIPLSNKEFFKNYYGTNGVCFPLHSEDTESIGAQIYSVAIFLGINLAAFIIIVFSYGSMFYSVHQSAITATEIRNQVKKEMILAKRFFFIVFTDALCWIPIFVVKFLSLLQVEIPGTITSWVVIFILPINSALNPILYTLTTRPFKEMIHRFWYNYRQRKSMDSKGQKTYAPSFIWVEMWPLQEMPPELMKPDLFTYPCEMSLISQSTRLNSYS
Kind of data set: In vitro OVCAR5 cAMP assay (HTRF). In kind it is cell-based. The note with it: OVCAR 5 cells (cAMP); for EC50: Table 2; for Emax: maximal cAMP relative to human relaxin-2, Table 2. From the text:
OVCAR5 cells expressing endogenous human RXFP1 were used to test RXFP1 agonist properties of relaxin peptide analogues, and in particular of the peptides of sequence SEQ ID NO: 1-97.
Since RXFP1 is a Gs coupled GPCR, increases in cAMP was used as readout of RXFP1 activation.
Isobutyl methyl xanthine (IBMX) was used to inhibit phosphodiesterase activity facilitating cAMP measurements. HTRF (Homogenous Time Resolved Fluorescence) technology was used to detect cAMP due to its high sensitivity.
In summary, OVCAR5 were grown in regular medium (RPMI) containing 10% fetal calf serum (FCS) and 1% antibiotics (penicillin/streptomycin).
Before the experiments, cells were detached with accutase and incubated for 40 minutes at 37° C. with 1 mM (3-isobutyl-1-methylxanthine) IBMX.
Cells were then distributed in 384 black well plates containing increasing concentrations of the different peptides in a fix volume of medium (without FCS).
After an incubation of 30 min at 37° C. in a humid incubator in 5% CO2, the reaction was stopped by adding a fixed volume of a solution containing a lysis buffer and cAMP-D2 (cAMP labeled with the dye d2) and the anti-cAMP antibody linked to Europium and used for cAMP detection.
Readout of the experiment were performed on a fluorimeter allowing HTRF measurement. Activation curves were generated by plotting the intracellular value of cAMP versus log 10 of the compound concentration.
The 50% activation concentration (EC50) was calculated by nonlinear regression using the sigmoidal dose-response (variable slope) equation with Prism 5 software.
Emax % was determined as the maximal intracellular value of cAMP for test compound (upper limit of cAMP vs concentration curve) divided by the maximal intracellular value of cAMP for human relaxin-2 (H2-R1x) determined in the same test occasion multiplied by 100.
For orientation: Cyclic AMP is a second messenger, typically raised through Gs and lowered through Gi signalling.

The conditions of data set [2]: cited from earlier work.

Here are results for 3 molecules from patent US20240400638A1, “COMBINATION OF RELAXIN AND VASOPRESSIN ANALOGUES FOR TREATMENT OF RENAL DISORDERS OR CONDITIONS” (River 2 Renal Corp., priority 2021, published 2024).

SMILES strings stand for the structures. Numbered stars: 1 amine (or outer) side, 2 acyl side, 3 side chain; on linkers, the order of the positions; unused ones are H or OH. Bridge positions count the residues as written; N and C are the ends. Square brackets hold non-standard residues; d marks the D form. Side chains are listed from the residue outwards. Peptide text beside a SMILES is read from it. * marks the point of attachment. X2 = CCCCCCCCCCCCCCCCCC(=O)N[C@@H](CCC(=O)N[C@@H](CCC(=O)N[C@@H](CCC(=O)NCCCOCCOCCOCCCNC(=O)CCC(=O)NCCCOCCOCCOCCCNC(=O)CCC(=O)NCCCOCCOCCOCCCNC(=O)CCC(=O)NCCCOCCOCCOCCCN*)C(=O)O)C(=O)O)C(=O)O; X1 = CCCCCCCCCCCCCCCC(=O)N[C@@H](CCC(=O)N[C@@H](CCC(=O)N[C@@H](CCC(=O)NCCCOCCOCCOCCCNC(=O)CCC(=O)NCCCOCCOCCOCCCNC(=O)CCC(=O)NCCCOCCOCCOCCCN*)C(=O)O)C(=O)O)C(=O)O; Suc = O=C(CCC(=O)[*:2])[*:1]; Aib = CC(C)(N)C(=O)O

In data set [1], `CCCCCCCCCCCCCCCCCC(=O)N[C@@H](CCC(=O)N[C@@H](CCC(=O)N[C@@H](CCC(=O)NCCCOCCOCCOCCCNC(=O)CCC(=O)NCCCOCCOCCOCCCNC(=O)CCC(=O)NCCCOCCOCCOCCCNC(=O)CCC(=O)NCCCOCCOCCOCCCNC(=O)CCC(=O)NCCCC[C@H](NC(=O)CNC(=O)[C@H](CCC(=O)O)NC(=O)C(C)(C)NC(=O)C(C)(C)NC(=O)[C@@H](NC(=O)[C@H](CCCCNC(C)=O)NC(=O)[C@H](C)NC(=O)[C@H](CCCNC(=N)N)NC(=O)[C@@H](NC(=O)[C@H](CCCCN)NC(=O)[C@H](CCC(=O)O)NC(=O)[C@H](CCCNC(=N)N)NC(=O)CNC(=O)[C@H](CCC(=O)O)NC(=O)[C@H](CC(C)C)NC(C)=O)C(C)C)[C@@H](C)CC)C(=O)N[C@@H](CO)C(=O)N[C@H](C(=O)N[C@@H](Cc1ccccc1)C(=O)N[C@@H](CO)C(=O)NC(C)(C)C(=O)N[C@@H](CCCNC(=N)N)C(=O)N[C@@H](CCCCN)C(=O)N[C@@H](CCCCNC(C)=O)C(N)=O)[C@@H](C)O)C(=O)O)C(=O)O)C(=O)O` [compound 59] (Ac-LEGREKVRAK(Ac)I[Aib][Aib]EGK([Suc-X2])STFS[Aib]RKK(Ac)-NH2) yielded an EC50 of 0.09 nM and a maximal response (Emax) of 99%.

In data set [1], `CCCCCCCCCCCCCCCC(=O)N[C@@H](CCC(=O)N[C@@H](CCC(=O)N[C@@H](CCC(=O)NCCCOCCOCCOCCCNC(=O)CCC(=O)NCCCOCCOCCOCCCNC(=O)CCC(=O)NCCCOCCOCCOCCCNC(=O)CCC(=O)NCCCC[C@H](NC(=O)CNC(=O)[C@H](CCC(=O)O)NC(=O)C(C)(C)NC(=O)C(C)(C)NC(=O)[C@@H](NC(=O)[C@H](CCCCNC(C)=O)NC(=O)C(C)(C)NC(=O)[C@H](CCCNC(=N)N)NC(=O)[C@@H](NC(=O)[C@H](CCCCN)NC(=O)[C@H](CCC(=O)O)NC(=O)[C@H](CCCNC(=N)N)NC(=O)CNC(=O)[C@H](CCC(=O)O)NC(=O)[C@H](CC(C)C)NC(C)=O)C(C)C)[C@@H](C)CC)C(=O)N[C@@H](CO)C(=O)N[C@H](C(=O)N[C@@H](Cc1c[nH]c2ccccc12)C(=O)N[C@@H](CO)C(=O)NC(C)(C)C(=O)N[C@@H](CCCNC(=N)N)C(=O)N[C@@H](C)C(=O)N[C@@H](CCCCNC(C)=O)C(N)=O)[C@@H](C)O)C(=O)O)C(=O)O)C(=O)O` [compound 82] (Ac-LEGREKVR[Aib]K(Ac)I[Aib][Aib]EGK([Suc-X1])STWS[Aib]RAK(Ac)-NH2) returned a concentration giving a half-maximal response (EC50) of 0.54 nM and a maximal effect (Emax) of 95%.

As to `NCCCC[C@H](NC(=O)[C@@H]1CCCN1C(=O)[C@@H]1CSSC[C@H](NC(=O)CNC(=O)CNC(=O)CN)C(=O)N[C@@H](Cc2ccc(O)cc2)C(=O)N[C@@H](Cc2ccccc2)C(=O)N[C@@H](CCC(N)=O)C(=O)N[C@@H](CC(N)=O)C(=O)N1)C(=O)NCC(N)=O` [terlipressin, Terlipressin] (H-GGGCYFQNCPKG-NH2; disulfide 4-9), the mortality in data set [2] (at 3 months, patients receiving terlipressin and standard of care (e.g., albumin), Wong et al. 2021) was 51%. For the same molecule, in data set [2] (human, in vivo), the “patients requiring discontinuation of treatment for severe side effects” value is on record as “up to 10%” and the “patients with side effects” value was “up to 40%”.

The EC50 is the midpoint of the concentration-response curve. A lower EC50 goes with an effect from little substance. In general, Emax refers to the maximal effect, on the per cent scale that the assay sets. As usually defined, the mortality is the share of the test organisms that died.
